Test system: mature osteoclasts
Experiment: Bone resorption assay (OsteoLyse Assay Kit) with mature osteoclasts
Format: cell-based, mouse
Settings: 8 μM (IC50 concentration), mature osteoclasts treated for 3 days, normalized by cellular DNA
Description: The quantitative measurement of in vitro osteoclast-mediated degradation of human bone collagen was carried out using the OsteoLyse™ Assay Kit (Lonza Walkersville, Inc. Walkersville, Md., USA) according to manufacturer's instructions.
This assay allows a direct measurement of the release of […] into the osteoclast resorption lacuna (Delaisse et al., 2003).
Briefly, 2×10^4 mouse bone marrow cells prepared above were dispensed in 96-well OsteoLyse™ cell culture plate coated with europium-conjugated collagen.
The cells were incubated in 0.1 mL of complete α-MEM per well in the presence of M-CSF (60 ng/mL) and RANKL (150 ng/mL) in the conditions of 37° C. and 5% CO2 for 6 days. Thereafter, the medium was exchanged on day 3 of the dispensing.
In order to measure the ability to inhibit the mature osteoclastic functions, the medium was exchanged on day 6, and osmundacetone was added at an IC50 concentration obtained from TRAP analysis.
After the mature osteoclasts were treated with osmundacetone for 3 days, 10 μL of a supernatant of the cell culture was taken, and placed in a second 96-well analysis plate containing fluorophore-Releasing reagent. The degraded collagen was measured using a time-resolved fluorescence fluorimeter, Wallac Victor (Perkin Elmer, Waltham, Mass., USA). […]

Question: With CC(=O)/C=C/c1ccc(O)c(O)c1 [Osmundacetone, (3E)-4-(3,4-dihydroxyphenyl)-3-buten-2-one] as the compound, how does the “bone resorption function of mature osteoclasts, % that of non-treated osteoclasts” value read?
Answer: Its value is 58.7±13%.
